These results are taken from US5756527A, “Imidazole derivatives useful as modulators of multi drug resistances” (Ontogen Corporation, priority 1997, dated 1998).

By EC50 is commonly meant the midpoint of the concentration-response curve.

Series [1] has as its system CEM/VLB1000. In words: Cytotoxicity potentiation (alamar blue) of vinblastine in multidrug-resistant cells. Type of series: cell-based. The settings on record: midpoint of minimum and maximum cytotoxicity induced by 3-5 μg/mL vinblastine and compound, 48 h. As to the method:
Multidrug-resistant cell lines are easily obtainable for in vitro determination of drug sensitization by compounds of the present invention. In vitro potentiation of antineoplastic cytotoxicity by the imidazole derivatives of the present invention was measured in both CEM/VLB1000 and SK/VLB1000 cell lines. The multidrug resistant cell lines were obtained from Dr. Victor Ling, Ontario Cancer Institute, Toronto, Canada. The CEM/VLB 1000 cell line was maintained as a suspension in minimum essential medium supplemented with 10% fetal bovine serum in a humidied atmosphere of 95% air and 5% CO2 while the SK/VLB 1000 cell line was maintained as adherent cells using the identical medium conditions as the CEM cells. The CEM/VLB 1000 cells were seeded at a density of 5×10^4 cells/well in a 96 well microtiter plate while the SK/VLB 1000 cell line was seeded at a density of 2,500 cells/well after trypsinization. Vinblastine (5 μg/mL, for the CEM cells) or Taxol (3 μg/mL, for the SK cells) and compound (0.01 to 50 μM) were added directly to the wells. After an incubation of 48 hours in presence of drug, alamar blue (B. Page et al., Int. J. Oncol. 3: 473-476, 1993) was added (10 μL to the 200 μL cell suspension) for a period of 24 hours after which the fluorescence (excitation=530 nm, emission=590 nm) was read for each well using a "CytoFluor" microtiter fluorometer plate reader. This assay measures the effective concentration of compound necessary to enhance the cytotoxicity (EC50) of vinblastine in the MDR cell line.
^1 Values presented are the midpoint (EC50) of the minimum and
maximum cytotoxicity induced by 3-5 μg/mL vinblastine and the specific
compound of the present invention.
In general terms: Alamar Blue is a resazurin reagent that responds to reducing activity.

Series [2] concerns CEM/VLB1000. In words: [3H]-vinblastine (VLB) accumulation assay. It is filed as cell-based. The note with it: midpoint of minimum and maximum increase in accumulation of 3H-vinblastine (275 nM), 3 hours at 37° C. As to the method: ^3 H-vinblastine accumulation was also measured in the CEM/VLB1000 cell line. Corning Easy-Wash 96 well plates were pretreated with PBS and 1% BSA for 60 minutes and then removed. CEM/VLB1000 cells were seeded at 2×10^5, 40 μL volume. Plates were incubated at 37° C. for 30-60 minutes prior to use. The reference reversing agent, verapamil, or the compound of the present invention was added to the well followed by addition of media containing ^3 H-vinblastine (final concentration=275nM). Plates were allowed to incubate for 3 hours at 37° C. Cells were harvested onto pretreated Wallace filtermats A (pretreated with 0.1% polyethyleneimine) using a TomTek harvester-96. After filtering, the filtermats were allowed to dry completely. Meltix B scintillant was then added to the filtermats. The filters were then placed in a 90° C. oven for approximately 3-5 minutes and then removed. Scintillant was allowed to solidify on the filtermats. Filtermats were then placed in sample bags and read on a Wallace BetaPlate scintillation counter. The effects of compounds of the present invention in the cytotoxicity potentiation assays and vinblastine (VLB) accumulation assay are given in the Table below:
^2 Values presented are the midpoint (EC50) of the minimum and
maximum increase in accumulation of ^3 Hvinblastine caused by the
specific compound of the present invention.

Consider `CC(C)OC(=O)/C=C/c1ccc(-c2nc(-c3ccc(N(C)C)cc3)c(-c3ccc(N(C)C)cc3)[nH]2)cc1` [Example 38, 2-[4-(trans-i-propylpropenoate)phenyl]-4,5-bis[(4-N,N-dimethylamino)phenyl]imidazole], for which the concentration for a half-maximal effect (EC50) in the series with CEM/VLB1000 [1] amounted to 138 nM; with CEM/VLB1000 [2], 2400 nM.
On the same counts, the results for `CN(C)c1ccc(-c2nc(-c3ccc(/C=C/C(=O)OC(C)(C)C)cc3)[nH]c2-c2ccc(N(C)C)cc2)cc1` [Example 39, 2-[4-(trans-t-butylpropenoate)phenyl]-4,5-bis[(4-N,N-dimethylamino)phenyl] imidazole] are 590 nM and 4500 nM.
On to `CCN(CC)c1ccc(-c2[nH]c(-c3ccc(/C=C/C(=O)OC)cc3)nc2-c2ccc(NC)cc2)cc1` [Example 40, 2-[4-(trans-methylpropenoate)phenyl]-4-[(4-N,N-diethylamino)phenyl]-5-[(4-N-methylamino)phenyl] imidazole], for which the EC50 in the series on CEM/VLB1000 [1] came out at 226 nM; in the series with CEM/VLB1000 [2], 1100 nM.
Consider `CCN(CC)c1ccc(-c2nc(-c3ccc(/C=C/C(=O)OC(C)C)cc3)[nH]c2-c2ccc(NC)cc2)cc1` [Example 41, 2-[4-(trans-i-propylpropenoate)phenyl]-4-[(4-N,N-diethylamino)phenyl]-5-[(4-N-methylamino)phenyl] imidazole], for which the figures for the EC50 with CEM/VLB1000 [1] and in the series on CEM/VLB1000 [2] were 420 nM and 6000 nM, respectively.
Take `CNc1ccc(-c2[nH]c(-c3ccc(/C=C/C(=O)OC)cc3)nc2-c2ccc(N(C)C)cc2)cc1` [Example 42, 2-[4-(trans-methylpropenoate)phenyl]-4-[(4-N,N-dimethylamino)phenyl]-5-[(4-N-methylamino)phenyl] imidazole]: the EC50 was found to be 170 nM with CEM/VLB1000 [1] and 1100 nM in the series with CEM/VLB1000 [2].
On to `CCCN(C)c1ccc(-c2nc(-c3ccc(/C=C/C(=O)OC)cc3)[nH]c2-c2ccc(NC)cc2)cc1` [Example 43, 2-[4-(trans-methylpropenoate)phenyl]-4-[(4-N-methyl-N-propylamino)phenyl]-5-[(4-N-methylamino)phenyl] imidazole], for which the EC50 in the series with CEM/VLB1000 [1] was 148 nM; with CEM/VLB1000 [2], 2300 nM.
Regarding `CCCN(CCC)c1ccc(-c2[nH]c(-c3ccc(/C=C/C(=O)OC)cc3)nc2-c2ccc(NC)cc2)cc1` [Example 44, 2-[4-(trans-methylpropenoate)phenyl]-4-[(4-N,N-dipropylamino)phenyl]-5-[(4-N-methylamino)phenyl] imidazole], the EC50 in the series with CEM/VLB1000 [1] was 165 nM; in the series on CEM/VLB1000 [2] it was 1400 nM.
In the same order, the values of `CCCCN(CCCC)c1ccc(-c2[nH]c(-c3ccc(/C=C/C(=O)OC)cc3)nc2-c2ccc(NC)cc2)cc1` [Example 45, 2-[4-(trans-methylpropenoate)phenyl]-4-[(4-N,N-dibutylamino)phenyl]-5-[(4-N-methylamino)phenyl] imidazole] are 1900 nM and 10000 nM.
For `CNc1ccc(-c2nc(-c3ccc(/C=C/C(=O)OC)cc3)[nH]c2-c2ccc(NC)cc2)cc1` [Example 46, 2-[4-(trans-methylpropenoate)phenyl]-4,5-bis(4-N-methylaminophenyl) imidazole], the figures for the EC50 with CEM/VLB1000 [1] and in the series on CEM/VLB1000 [2] were 203 nM and 1400 nM, respectively.
Consider `CNc1ccc(-c2[nH]c(-c3ccc(/C=C/C(=O)OC)cc3)nc2-c2ccc(NC(C)C)cc2)cc1` [Example 47, 2-[4-(trans-methylpropenoate)phenyl]-4-[(4-N-i-propylamino)phenyl]-5-[(4-N-methylamino)phenyl] imidazole], for which the 50% effective concentration (EC50) with CEM/VLB1000 [1] turned out to be 194 nM; in the series with CEM/VLB1000 [2], 870 nM.
`CNc1ccc(-c2[nH]c(-c3ccc(/C=C/C(=O)OC)cc3)nc2-c2ccc(NC(C)(C)C)cc2)cc1` [Example 48, 2-[4-(trans-methylpropenoate)phenyl]-4-[(4-N-t-butylamino)phenyl]-5-[(4-N-methylamino)phenyl] imidazole]: the EC50 with CEM/VLB1000 [1] was found to be 240 nM; in the series with CEM/VLB1000 [2], 1200 nM.
In the same order, the values of `CCN(CC)c1ccc(-c2nc(-c3ccc(/C=C/C(=O)OC)cc3)[nH]c2-c2ccc(N(CC)CC)cc2)cc1` [Example 49, 2-[4-(trans-methylpropenoate)phenyl]-4,5-bis(4-N,N-diethylaminophenyl) imidazole] are 675 nM and 5000 nM.
Turning to `CCN(CC)c1ccc(-c2nc(-c3ccc(/C=C/C(=O)OC)cc3)[nH]c2-c2ccc(N(C)C)cc2)cc1` [Example 50, 2-[4-(trans-methylpropenoate)phenyl]-4-[(4-N,N-diethylamino)phenyl]-5-[(4-N,N-dimethylamino)phenyl] imidazole], the EC50 with CEM/VLB1000 [1] was determined as 225 nM; in the series with CEM/VLB1000 [2] it was 4900 nM.
With `COC(=O)/C=C/c1ccc(-c2nc(-c3ccc(N)cc3)c(-c3ccc(N(C)C)cc3)[nH]2)cc1` [Example 51, 2-[4-(trans-methylpropenoate)phenyl]-4-[(4-N,N-dimethylamino)phenyl]-5-(4-aminophenyl) imidazole], the EC50 in the series with CEM/VLB1000 [1] is 480 nM; in the series on CEM/VLB1000 [2] it was 2600 nM.
`CCN(CC)c1ccc(-c2[nH]c(-c3ccc(/C=C/C(=O)OC)cc3)nc2-c2ccc(N)cc2)cc1` [Example 52, 2-[4-(trans-methylpropenoate)phenyl]-4-[(4-N,N-diethylamino)phenyl]-5-(4-aminophenyl) imidazole]: the EC50 with CEM/VLB1000 [1] stood at 275 nM; in the series on CEM/VLB1000 [2] it was 2600 nM.
On the same counts, the results for `CNc1ccc(-c2nc(-c3ccc(/C=C/C(=O)OC)cc3)[nH]c2-c2ccc(F)cc2)cc1` [Example 53, 2-[4-(trans-methylpropenoate)phenyl]-4-[(4-N-methylamino)phenyl]-5-(4-fluorophenyl) imidazole] are 630 nM and 6500 nM.
On to `COC(=O)/C=C/c1cccc(-c2nc(-c3ccc(N(C)C)cc3)c(-c3ccc(N(C)C)cc3)[nH]2)c1` [Example 54, 2-[3-(trans-methylpropenoate)phenyl]-4,5-bis(4-N,N-dimethylaminophenyl) imidazole], for which the figures for the EC50 in the series with CEM/VLB1000 [1] and in the series with CEM/VLB1000 [2] were 256 nM and 4800 nM, respectively.
Consider `COC(=O)/C=C/c1cc(-c2nc(-c3ccc(N(C)C)cc3)c(-c3ccc(N(C)C)cc3)[nH]2)ccc1OC` [Example 55, 2-[4-methoxy-3-(trans-methylpropenoate)phenyl]-4,5-bis(4-N,N-dimethylaminophenyl) imidazole], for which the results for the EC50 in the series with CEM/VLB1000 [1] and in the series on CEM/VLB1000 [2] were 370 nM and 6000 nM, respectively.
In the case of `COC(=O)/C=C/c1ccc(OC)c(-c2nc(-c3ccc(N(C)C)cc3)c(-c3ccc(N(C)C)cc3)[nH]2)c1` [Example 56, 2-[2-methoxy-5-(trans-methylpropenoate)phenyl]-4,5-bis(4-N,N-dimethylaminophenyl) imidazole], the results for the EC50 in the series with CEM/VLB1000 [1] and in the series with CEM/VLB1000 [2] were 126 nM and 2800 nM, respectively.
As to `COC(=O)/C=C/c1cc(-c2nc(-c3ccc(N(C)C)cc3)c(-c3ccc(N(C)C)cc3)[nH]2)cc(OC)c1OC` [Example 57, 2-[3,4-dimethoxy-5-(trans-methylpropenoate)phenyl]-4,5-bis(4-N,N-dimethylaminophenyl) imidazole], the EC50 stood at 453 nM in the series on CEM/VLB1000 [1] and 2800 nM in the series on CEM/VLB1000 [2].
With `CCOCCCc1ccc(-c2nc(-c3ccc(N(C)C)cc3)c(-c3ccc(N(C)C)cc3)[nH]2)cc1` [Example 69, 2-[4-(3-ethoxypropyl)phenyl]-4,5-bis[(4-N,N-dimethylamino)phenyl] imidazole], the EC50 in the series on CEM/VLB1000 [1] worked out at 210 nM.
As for `CCCCOc1ccc(-c2nc(-c3ccc(N(C)C)cc3)c(-c3ccc(N(C)C)cc3)[nH]2)cc1` [Example 70, 2-[4-butyloxyphenyl]-4,5-bis[(4-N,N-dimethylamino)phenyl] imidazole], the concentration giving a half-maximal response (EC50) in the series on CEM/VLB1000 [1] came out at 430 nM.
Still for that read-out and setting: in the case of `COCCOc1ccc(-c2nc(-c3ccc(N(C)C)cc3)c(-c3ccc(N(C)C)cc3)[nH]2)cc1` [Example 71, 2-[4-(2-methoxyethoxy)phenyl]-4,5-bis[(4-N,N-dimethylamino)phenyl] imidazole] it was 170 nM.
Regarding `COCCOc1ccc(-c2nc(-c3ccc(N(C)C)cc3)c(-c3ccc(N(C)C)cc3)[nH]2)cc1OC` [Example 72, 2-[3-methoxy-4-(2-methoxyethoxy)-phenyl]-4,5-bis[(4-N,N-dimethylamino)phenyl] imidazole], the EC50 in the series on CEM/VLB1000 [1] amounted to 160 nM.
